Patent publication US20050153395A1, “Unique integrin binding site in connective tissue growth factor (CTGF)” (CHILDREN'S HOSPITAL INC., priority 2003, published 2005)

Assays:
integrin αvβ3 = integrin αvβ3 (Homo sapiens, UniProt P05106+P06756); assay: Solid phase ELISA of integrin αvβ3 binding; details: for inhibition of αvβ3 binding to CTGF4: 35 μM peptide pre-incubated with 1 μg/ml αvβ3
Experimental: Solid phase binding studies were also performed to investigate the binding of CTGF isoforms and αvβ3. Each CTGF isoform or vitronectin was individually coated onto microtiter wells at different concentrations, and the subsequent binding of αvβ3 was detected by ELISA using an anti-human αvβ3 monoclonal antibody. […] Saturation of binding occurred at 2 μg/ml for each CTGF isoform and 4 μg/ml for vitronectin.
In order to identify the αvβ3 binding site in CTGF4, eighteen synthetic peptides spanning the entire C-terminal region of CTGF4 (residues 246-349 of SEQ ID NO: 1) were synthesized and used as potential blocking agents in the solid phase binding studies as described in Example 3. Microtiter wells (Dynex Technology) were pre-coated with different CTGF isoforms at desired concentrations at 4° C. for 16 hours, and then blocked with 2% BSA at room temperature for 2 hours. The plates were washed, four times with PBS, pH 7.3, containing 1 mM CaCl2 and 1 mM MgCl2. Integrin αvβ3 (1 μg/ml) was pre-incubated with each synthetic peptide for 1 hour in blocking solution, and then added to each well, and incubated at room temperature for 3 hours. Integrin αvβ3 was detected by successive incubation with anti-human αvβ3 monoclonal antibody diluted in blocking solution (1:1000), and followed by HRP-conjugated goat anti-mouse IgG (1:4000). The color reaction was developed using the horseradish peroxidase ELISA reagents (Chemicon), and the absorbance at 450 nm was measured using Bio Assay Reader (HTS700).
The ability of mutant CTGF4 to bind to integrin αvβ3 was assessed by solid phase ELISA which measured the ability of purified integrin αvβ3 to bind to the CTGF4 mutants.

CTGF promoter = CTGF promoter luciferase reporter pCCN2-Luc in PSCs; format: cell-based, rat; details: P<0.01 compared with no stimulation
Experimental: TGF-β1 is a well characterized transcriptional activator of CTGF in other cell types. To further examine the mechanism by which TGF-β1 and other fibrogenic stimulators could influence CTGF production in PSCs, CTGF promoter activity in PSCs was evaluated using the luciferase reporter, pCCN2-Luc, as described in Gao et al., (J Hepatol 2004;40:431-8).

[1] = test system: hepatic stellate cells (HSC); assay: HSC adhesion assay on coated wells (CyQUANT fluorescence); format: cell-based, rat; details: for effect of divalent cation on HSC adhesion to CTGF4: 10 mM cation, after EDTA; for HSC adhesion supported by the coated substance: coated at 2 μg/ml; for inhibition of CTGF4-mediated HSC adhesion: wells coated 2 μg/ml CTGF4, antibody/IgG 25 μg/ml, heparin 2 μg/ml
Experimental: CTGF4 is known to be expressed in hepatic stellate cells (HSC) and to induce proliferation and extracellular matrix (ECM) production in these cells. (Williams et al., J Hepatol 32, 754-761, 2000; Paradis et al., Lab Invest 82, 767-774, 2002). The following experiments were carried out to determine if HSCs adhere to CTGF. HSCs were isolated from normal Sprague-Dowley rate by sequential perfusion with pronase/collagenase and purified by density gradient separation as described in Vyas et al. (Gastroenterology 109: 889-898, 1995).
The cells were subsequently detached using 1 mM EDTA PBS (137 mM NaCl, 2.7 mM KCl, 4.3 mM Na2HPO4, 1.4 mM KH2PO4, pH 7.3), washed twice in DMEM and resuspended in serum free medium containing 0.5% BSA. The cells-were plated (1.25×10^4 cells/well) in a 96 well plate coated with one of the following: 2 μg/ml CTGF isoform (CTGF1-4, CTGF3-4, CTGF4), 1 μg/ml laminin, or 4 μg/ml vitronectin and incubated for 20 minutes at 37° C. Subsequently the cells were washed with PBS and the adherent cells were fixed with 10% formalin and stained with CyQUANT GR dye/cell lysis buffer (Molecular Probes , Eugene, Oreg.) according to the manufacturer's instructions. The number of cells that adhered to CTGF isoforms or ECM protein was quantified by measuring the sample fluorescence intensity at Ex/Em: 480/520 nm using a micro-plate reader (CytoFluor™ 2350).
To determine if the CTGF-mediated HSC adhesion was carried out through integrin receptors, the experiment described above were carried out in the presence and absence of 10 mM EDTA. […] It is widely believed that Mn^2+ induces conformational shifts that mimic the physiological activation of β1 and β3 integrins (Roberts et al., J Biol Chem 278: 1975-1985, 2003, van der Pauw et al., J Periodontal Res 37: 317-323, 2002) as Mn^2+-induced activation leads to enhanced ligand-binding affinity and cell adhesion (Mould et al., J Biol Chem 277: 19800-19805, 2002, Loftus & Liddington J Clin Invest 100: S77-81, 1997, Lin et al., J Biol Chem 272: 14236-14243, […]).
Synthetic peptides GRGDsp (1 mM), GRGEsp (1 mM), Echistatin (2 μM) or vehicle buffer alone were added to the, HSC culture medium 30 minutes prior to plating.
In addition, adhesion assays as described in Example 1 were carried out in CTGF4 coated plates in the presence and absence of monoclonal antibody specific for αvβ3 (LM609).

[2] = test system: pancreatic stellate cells (PSC); assay: PSC adhesion assay on coated wells; format: cell-based, rat; details: for restoration of CTGF-mediated PSC adhesion after EDTA: 10 mM cation, 5 mM EDTA; for inhibition of PSC adhesion to CTGF4: 2 μg/ml CTGF4 coat, EDTA 5 mM, antibodies 25 μg/ml, heparin 2 μg/ml, peptides 35 μM; for PSC adhesion supported by the coated substance: coated at 2 μg/ml; for inhibition of FN-mediated PSC adhesion: fibronectin coat
Source text: Rat PSCs were isolated by a modification of the method described by Phillips et al., Gut; 52:677-82, 2003. Briefly, pancreatic tissue was digested in situ with 0.03% collagenase P (Roche, Indianapolis, Ind.) in HBSS by perfusion through the thoracic aorta. This protocol was approved by the Institutional Animal Care and Use Committee of Children's Research Institute, Columbus, Ohio. The tissue was pooled, minced with scissors, and then digested with 0.05% collagenase P, 0.02% protease XIV (Sigma, St. Louis), and DNase I (Roche, Indianapolis, Ind.) in HBSS. The resulting cell suspension was centrifuged in a 12% Optiprep gradient at 1400 g for 14 minutes. Stellate cells separated into a hazy band just above the interface of a the gradient and the aqueous buffer. This band was harvested, and the cells washed and resuspended in DMEM supplemented with 25 mM Hepes buffer, 10% FBS, and 100 U/ml penicillin in, 100 μg/ml streptomycin. The, cells were maintained at 37° C. in a humidified atmosphere of 5% CO2/95% air.
The ability of activated PSC to adhere to non-tissue culture plastic microtiter wells coated with recombinant CTGF1-4, CTGF3-4 or CTGF4 was investigated. The solid phase binding assay was carried out as described in Example 2. […] To assess the possibility that CTGF-mediated PSC adhesion involved cell surface integrins, the effect of divalent cations on cell adhesion was examined, as described in Example 2. […]
Because CTGF is a heparin-binding protein, this property was further investigated.
To identify the peptides that bind to PSCs, cell adhesion assays were carried out as described in Example 3.
To further investigate the peptide binding, P2 or P5 (10 μM) or vehicle buffer alone (no add) were added to PSC cell suspensions for 30 minutes at room temperature.

integrin α5β1 = integrin α5β1 (Homo sapiens, UniProt P05556+P08648); assay: Solid phase ELISA of integrin α5β1 binding; details: for reversal of EDTA inhibition of α5β1 binding to CTGF4: 10 mM cation; for inhibition of cell-free binding of integrin α5β1 to FN: FN 4 μg/ml
Experimental: In a second approach, a solid phase binding assay was used in which CTGF1-4 or FN were individually coated onto microtiter wells that were subsequently incubated with purified integrin α5β1. The presence of immobilized integrin α5β1 was detected by ELISA using an anti-integrin α5β1 antibody similar to the methods described in Example 3 above. In addition, CTGF1-4 bound to integrin α5β1 in a dose-dependent manner, with maximal binding at 2 μg/ml CTGF. This level of CTGF1-4 (2 μg/ml) binding was the same as that elicited by 2 μg/ml FN, a well known ligand of integrin α5β1. In a similar experiment, 2 μg/ml of CTGF1-4;CTGF3-4 or CTGF4 were individually precoated onto microtiter wells. Using the solid-phase assay, integrin α5β1 bound to CTGF1-4, CTGF3-4 or CTGF4 See FIG. 5 (Panel B).
To directly analyze whether α5β1 integrin binds to CTGF4, microtiter wells coated with CTGF4 (2 μg/ml) or FN (4 μg/ml) were used in an ELISA assay to detect integrin binding, as described in Example 3. For these assays, 1 μg/ml integrin α5β1, alone or in the presence of 35 μM of P2peptide (CTGF[257-272]) and 35 μM of P5 peptide (CTGF [285-291]), were added to the precoated plates. […] The binding between CTGF4 and integrin α5 β1 was blocked by peptide P5 (CTGF [285-291]) or peptide P2 (CTGF[257-272]). […]

PSCs [3] = assay: PSC chemotaxis (migration) assay in culture insert; format: cell-based, rat; details: substance in lower chamber
Experimental: To examine whether CTGF plays a role in PSC migration, a chemotaxis assay was carried out in which the migratory behavior of PSCs in the upper chamber of a culture insert was assessed following addition of CTGF to the lower chamber. […] PSC migration was also promoted by FN, PDGF or TGF-β1.

PSCs [4] = assay: PSC DNA synthesis, [3H]thymidine incorporation; format: cell-based, rat; details: 24 hours; CTGF1-4 effect in 0.1% serum, not in serum-free medium
Experimental: To measure the effect of CTGF on cell proliferation, DNA synthesis was measured by ^3H incorporation in PSCs. The cells were incubated for 24 hours with 0.2 μCi [^3H] thymidine in each well (24-well plate). The incorporation of [^3H] thymidine into PSC DNA was determined using a scintillation counter after the cells had been washed with PBS, fixed with 10% methanol, treated with cold 5% trichloroacetic acid, and lysed in 0.3 N NaOH.

[5] = EDTA 10 mM, GRGDsp 1 mM, Echistatin 2 μM

integrin αvβ3, sequence (P06756 31-889 limits assumed): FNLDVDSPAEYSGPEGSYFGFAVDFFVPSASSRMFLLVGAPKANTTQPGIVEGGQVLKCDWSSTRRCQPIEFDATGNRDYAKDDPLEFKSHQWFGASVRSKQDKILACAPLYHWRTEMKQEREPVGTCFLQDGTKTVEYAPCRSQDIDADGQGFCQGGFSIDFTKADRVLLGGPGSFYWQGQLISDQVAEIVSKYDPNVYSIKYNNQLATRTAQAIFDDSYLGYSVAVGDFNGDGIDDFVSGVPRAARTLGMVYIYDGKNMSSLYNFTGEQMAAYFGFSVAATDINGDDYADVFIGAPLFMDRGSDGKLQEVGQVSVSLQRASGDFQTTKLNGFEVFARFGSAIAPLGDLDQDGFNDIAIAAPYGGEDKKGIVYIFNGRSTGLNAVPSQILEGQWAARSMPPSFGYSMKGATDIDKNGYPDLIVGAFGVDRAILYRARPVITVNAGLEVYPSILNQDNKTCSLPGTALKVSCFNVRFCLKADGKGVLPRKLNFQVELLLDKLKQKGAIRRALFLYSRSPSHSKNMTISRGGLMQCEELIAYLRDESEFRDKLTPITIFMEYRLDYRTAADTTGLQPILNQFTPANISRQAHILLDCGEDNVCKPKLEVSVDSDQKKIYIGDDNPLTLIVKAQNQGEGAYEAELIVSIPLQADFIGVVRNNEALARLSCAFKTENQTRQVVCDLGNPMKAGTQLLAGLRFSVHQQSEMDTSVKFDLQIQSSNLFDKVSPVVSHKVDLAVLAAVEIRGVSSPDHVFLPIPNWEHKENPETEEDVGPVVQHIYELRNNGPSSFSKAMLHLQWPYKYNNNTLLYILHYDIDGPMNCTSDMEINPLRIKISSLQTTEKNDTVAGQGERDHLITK
integrin αvβ3, sequence (P06756 891-1048 partner limits assumed): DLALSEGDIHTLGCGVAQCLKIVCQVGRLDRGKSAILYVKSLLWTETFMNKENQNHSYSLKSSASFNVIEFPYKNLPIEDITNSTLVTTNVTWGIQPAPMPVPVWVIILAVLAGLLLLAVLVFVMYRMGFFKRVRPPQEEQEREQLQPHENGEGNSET
integrin αvβ3, sequence (P05106 27-788): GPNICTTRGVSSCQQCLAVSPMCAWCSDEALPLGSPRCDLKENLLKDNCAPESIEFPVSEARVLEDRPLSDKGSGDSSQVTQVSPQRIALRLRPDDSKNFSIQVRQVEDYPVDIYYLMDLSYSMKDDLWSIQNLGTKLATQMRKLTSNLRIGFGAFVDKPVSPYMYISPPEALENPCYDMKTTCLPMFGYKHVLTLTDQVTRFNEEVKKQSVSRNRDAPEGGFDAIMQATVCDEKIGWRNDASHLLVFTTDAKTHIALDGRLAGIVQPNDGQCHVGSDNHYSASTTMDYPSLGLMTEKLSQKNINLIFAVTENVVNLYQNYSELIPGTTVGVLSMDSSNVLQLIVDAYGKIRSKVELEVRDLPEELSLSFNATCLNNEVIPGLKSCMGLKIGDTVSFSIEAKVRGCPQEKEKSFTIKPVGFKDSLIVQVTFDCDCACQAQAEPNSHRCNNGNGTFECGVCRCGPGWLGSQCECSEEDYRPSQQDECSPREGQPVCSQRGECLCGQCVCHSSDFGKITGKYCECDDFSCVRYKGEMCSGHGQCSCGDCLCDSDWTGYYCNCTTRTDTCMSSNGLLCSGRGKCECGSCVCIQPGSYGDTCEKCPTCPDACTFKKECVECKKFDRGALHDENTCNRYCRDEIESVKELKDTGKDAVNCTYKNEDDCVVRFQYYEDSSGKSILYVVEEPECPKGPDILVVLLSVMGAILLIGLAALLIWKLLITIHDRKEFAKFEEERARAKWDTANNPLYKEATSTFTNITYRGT
integrin α5β1, sequence (P08648 42-894 limits assumed): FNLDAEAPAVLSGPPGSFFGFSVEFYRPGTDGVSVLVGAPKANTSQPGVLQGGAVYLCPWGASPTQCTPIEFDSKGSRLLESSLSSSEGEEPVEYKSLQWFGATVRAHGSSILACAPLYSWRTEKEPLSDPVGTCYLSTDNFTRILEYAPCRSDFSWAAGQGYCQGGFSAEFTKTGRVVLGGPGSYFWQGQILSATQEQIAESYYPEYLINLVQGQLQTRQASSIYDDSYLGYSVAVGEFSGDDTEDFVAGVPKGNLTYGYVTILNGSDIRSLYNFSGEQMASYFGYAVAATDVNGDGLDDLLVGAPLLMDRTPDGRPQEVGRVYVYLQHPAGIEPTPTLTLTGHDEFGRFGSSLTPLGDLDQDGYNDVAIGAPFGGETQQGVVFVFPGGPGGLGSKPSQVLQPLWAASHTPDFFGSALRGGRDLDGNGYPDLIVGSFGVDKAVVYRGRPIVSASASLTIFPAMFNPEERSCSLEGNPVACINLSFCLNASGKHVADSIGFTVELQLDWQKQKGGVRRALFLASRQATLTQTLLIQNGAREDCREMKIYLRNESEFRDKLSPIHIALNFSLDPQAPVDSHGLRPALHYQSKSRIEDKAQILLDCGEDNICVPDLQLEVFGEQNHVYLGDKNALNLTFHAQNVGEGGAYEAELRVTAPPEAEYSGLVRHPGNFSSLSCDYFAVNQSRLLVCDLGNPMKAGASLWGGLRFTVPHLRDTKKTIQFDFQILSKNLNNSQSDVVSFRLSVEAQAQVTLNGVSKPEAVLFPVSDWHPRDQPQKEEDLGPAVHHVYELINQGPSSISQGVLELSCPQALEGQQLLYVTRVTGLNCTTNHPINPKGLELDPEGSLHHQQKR
integrin α5β1, sequence (P08648 895-1049 partner limits assumed): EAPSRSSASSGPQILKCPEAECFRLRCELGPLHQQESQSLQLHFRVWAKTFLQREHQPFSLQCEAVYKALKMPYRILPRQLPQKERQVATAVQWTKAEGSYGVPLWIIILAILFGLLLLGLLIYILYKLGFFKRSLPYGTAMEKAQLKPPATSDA
integrin α5β1, sequence (P05556 21-798): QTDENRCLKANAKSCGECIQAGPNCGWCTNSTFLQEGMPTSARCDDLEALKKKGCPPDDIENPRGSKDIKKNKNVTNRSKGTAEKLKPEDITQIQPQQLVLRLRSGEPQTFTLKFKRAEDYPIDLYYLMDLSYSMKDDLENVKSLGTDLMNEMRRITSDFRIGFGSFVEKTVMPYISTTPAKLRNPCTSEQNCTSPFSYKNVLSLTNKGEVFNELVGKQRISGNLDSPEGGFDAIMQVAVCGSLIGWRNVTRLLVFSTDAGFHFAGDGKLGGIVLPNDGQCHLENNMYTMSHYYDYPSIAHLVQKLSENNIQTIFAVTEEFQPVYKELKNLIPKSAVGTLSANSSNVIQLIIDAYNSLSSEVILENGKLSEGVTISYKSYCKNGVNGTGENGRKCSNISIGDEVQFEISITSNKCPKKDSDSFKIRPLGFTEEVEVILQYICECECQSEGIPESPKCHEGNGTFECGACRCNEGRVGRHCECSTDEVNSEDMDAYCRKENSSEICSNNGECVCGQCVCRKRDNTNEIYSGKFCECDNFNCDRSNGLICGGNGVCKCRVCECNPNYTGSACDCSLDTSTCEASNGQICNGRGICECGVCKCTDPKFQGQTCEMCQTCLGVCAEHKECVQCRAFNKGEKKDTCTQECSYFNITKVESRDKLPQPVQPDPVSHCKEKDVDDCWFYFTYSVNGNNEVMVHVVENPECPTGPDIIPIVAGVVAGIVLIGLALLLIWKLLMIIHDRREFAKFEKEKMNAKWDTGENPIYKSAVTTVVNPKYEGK

CTGF[259-272]: CTGF4 peptide that covers 87.5% of the sequence of peptide CTGF[257-272] (TPKISKPIKFELSG)
inhibition of αvβ3 binding to CTGF4 (integrin αvβ3): 67%

CC=O [acetaldehyde]
activity of pCCN2-Luc in PSC (CTGF promoter): significantly increased

[Mn+2] [Mn^2+]
effect of divalent cation on HSC adhesion to CTGF4 [1]: restored

[Ca+2] [Ca^2+]
restoration of CTGF-mediated PSC adhesion after EDTA [2]: restored
effect of divalent cation on HSC adhesion to CTGF4 [1]: completely abolished
reversal of EDTA inhibition of α5β1 binding to CTGF4 (integrin α5β1): reversed

vitronectin: ECM protein, known ligand of αvβ3 [reference compound]
saturation of αvβ3 binding at coating concentration (integrin αvβ3; 1 μg/ml integrin αvβ3): 4 µg/mL

GVCTDGR [Peptide P5]
inhibition of PSC adhesion to CTGF4 [2]: completely inhibited
PSC adhesion supported by the coated substance [2]: able to support the adhesion
inhibition of FN-mediated PSC adhesion [2]: able to block
inhibition of binding between CTGF4 and integrin α5β1 (integrin α5β1; peptides 35 μM, EDTA 5 mM): blocked
inhibition of cell-free binding of integrin α5β1 to FN (integrin α5β1; peptides 35 μM): blocked

EENIKKGKKCIRTP (listed as Homo sapiens) [CTGF[247-260]]
HSC adhesion supported by the coated substance [1]: no adhesion ability

[Mg+2] [Mg^2+]
restoration of CTGF-mediated PSC adhesion after EDTA [2]: restored
effect of divalent cation on HSC adhesion to CTGF4 [1]: restored
reversal of EDTA inhibition of α5β1 binding to CTGF4 (integrin α5β1): reversed

[Na+].[O-][Cl+2]([O-])[O-] [sodium chlorate]
inhibition of CTGF4-mediated HSC adhesion [1, 5]: Inability of HSC to adhere to CTGF4
inhibition of vitronectin-mediated HSC adhesion ([1]; wells coated 4 μg/ml vitronectin): unaffected

IRTPAAAAPIKFELSG [Mutant 2, mutant CTGF4 protein with K261A, I262A, S263A, K264A]
HSC adhesion relative to wild-type CTGF4 ([1]; mutant CTGF4 proteins): completely unable to support HSC adhesion

chondroitinase ABC
inhibition of CTGF4-mediated HSC adhesion [1, 5]: no effect

IRTPKISKPIKFELSG [CTGF[257-272]]
inhibition of PSC adhesion to CTGF4 [2]: completely inhibited
PSC adhesion supported by the coated substance [2]: able to support the adhesion
inhibition of FN-mediated PSC adhesion [2]: unaffected
HSC adhesion to coated peptide, saturation [1]: 2 µg/mL
HSC adhesion supported by the coated substance [1]: promoted HSC adhesion in a concentration-dependent manner
inhibition of αvβ3 binding to CTGF4 (integrin αvβ3): completely inhibited
inhibition of αvβ3 binding to vitronectin (integrin αvβ3; 35 μM peptide, 4 μg/ml VN coat): 85%
inhibition of cell-free binding of integrin α5β1 to FN (integrin α5β1; peptides 35 μM): did not block

GRGDsp
inhibition of CTGF1-4-mediated HSC adhesion ([1]; wells coated 2 μg/ml CTGF1-4, EDTA 10 mM, GRGDsp 1 mM, Echistatin 2 μM): 45%
inhibition of CTGF3-4-mediated HSC adhesion ([1]; wells coated 2 μg/ml CTGF3-4, EDTA 10 mM, GRGDsp 1 mM, Echistatin 2 μM): 51%
inhibition of CTGF4-mediated HSC adhesion [1, 5]: 58%

CCO [ethanol]
activity of pCCN2-Luc in PSC (CTGF promoter): significantly increased

PDGF
PSC migration (PSCs [3]): promoted
PSC proliferation (DNA synthesis) (PSCs [4]): significantly enhanced
activity of pCCN2-Luc in PSC (CTGF promoter): significantly increased
